In patent US20220267298A1 (priority 2019, published 2022):
“And” between values parts separate entries of the source, which are not always exact repeats. Identical values can stand only once.

The compounds below were run against T1, GRK2 (Homo sapiens, UniProt P25098) (assay: biochemical). Conditions: not given.
T1 sequence (P25098 1-689): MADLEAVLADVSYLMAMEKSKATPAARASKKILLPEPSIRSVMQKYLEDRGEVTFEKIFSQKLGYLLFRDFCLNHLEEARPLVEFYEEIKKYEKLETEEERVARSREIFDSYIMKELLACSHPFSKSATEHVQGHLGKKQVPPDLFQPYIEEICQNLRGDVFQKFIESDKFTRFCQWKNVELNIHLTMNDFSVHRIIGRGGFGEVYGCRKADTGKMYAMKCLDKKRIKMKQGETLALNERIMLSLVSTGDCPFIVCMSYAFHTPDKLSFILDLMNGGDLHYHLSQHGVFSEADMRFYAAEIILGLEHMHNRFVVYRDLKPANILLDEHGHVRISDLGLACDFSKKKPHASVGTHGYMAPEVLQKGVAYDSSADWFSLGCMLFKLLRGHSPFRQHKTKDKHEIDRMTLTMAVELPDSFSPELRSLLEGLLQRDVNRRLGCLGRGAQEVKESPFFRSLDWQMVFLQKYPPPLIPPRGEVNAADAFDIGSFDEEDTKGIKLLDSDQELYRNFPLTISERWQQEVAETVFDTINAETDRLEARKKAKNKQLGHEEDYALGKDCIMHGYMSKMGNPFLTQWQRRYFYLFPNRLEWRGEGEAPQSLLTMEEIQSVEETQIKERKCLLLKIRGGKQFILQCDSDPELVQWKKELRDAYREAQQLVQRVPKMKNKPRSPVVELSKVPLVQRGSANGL
Description: hGRK2 LANCE Ultra In Vitro Assay
G-protein coupled receptor kinases (GR Kinases) desensitize activated G-protein coupled receptors (GPCRs), by phosphorylation of cytoplasmic loops or carboxyl-terminal tails of GPCRs. GRK2 is one of the 6 different GR kinases and is implicated in heart failure and diabetes.
This assay is sensitive and requires as low as 10 nM enzyme, in a total volume of 10 μL. In addition, the ATP concentration can be varied over a broad range, without interfering with the assay or changing the assay condition. […] Testing inhibitors routinely at both high and low ATP concentrations also enables identification of potential non-ATP competitive inhibitors.
Paroxetine was used as the reference compound in this assay.
Test compounds were dissolved in DMSO at 1 mM and were 3-fold serial diluted. The compound DMSO solutions were then added (100 nL) into a plate well using an acoustic dispenser. To each well was then added 20 nM GRK2 (5 μL) in assay buffer (20 mM HEPES, pH 7.5, 10 mM MgCl2, 0.001% Tween-20®). The plate was sealed and centrifuged at 1000 rpm for 1 min.
The plate and wells containing a mixture of GRK2 and test compound were incubated at ambient temperature for 30 min (prior to initializing the enzymatic reaction).
Enzyme reactions were initiated by the addition of 4.9 μL Substrates/Eu-Ab mix to each well.
The plates were sealed and centrifuged at 1000 rpm for 1 min.
The enzyme reactions were quenched by addition of 10 μL of 12 mM EDTA in 1× LANCE detection solution to each well. The plates were then incubated at ambient temperature for 30 min.
The raw HTRF data were converted to % active as follows:
% active=(sample−NC)/(PC−NC)*100

IC50 [nM] | Compound
5 | COc1cccc(Cn2cnc3ccc(-c4cn[nH]c4)c(C#N)c3c2=O)c1 [Compound 1, 3-(3-Methoxybenzyl)-4-oxo-6-(1H-pyrazol-4-yl)-3,4-dihydroquinazoline-5-carbonitrile]
7 | COc1cccc(Cn2cnc3ccc(-c4cn[nH]c4)c(F)c3c2=O)c1 [Compound 3, 5-Fluoro-3-(3-methoxybenzyl)-6-(1H-pyrazol-4-yl)quinazolin-4(3H)-one]
9 | COc1cccc(Cn2cnc3ccc(-c4cn[nH]c4)c(O)c3c2=O)c1 [Compound 4, 5-Hydroxy-3-(3-methoxybenzyl)-6-(1H-pyrazol-4-yl)quinazolin-4(3H)-one]
9 | COc1cccc(Cn2cnc3ccc(-c4cn[nH]c4)c(OC)c3c2=O)c1 [Compound 5, 5-Methoxy-3-[(3-methoxyphenyl)methyl]-6-(1H-pyrazol-4-yl)quinazolin-4-one]
16 | COc1cccc(Cn2cnc3cc(OC)c(-c4cn[nH]c4)cc3c2=O)c1 [Compound 6, 7-Methoxy-3-[(3-methoxyphenyl)methyl]-6-(1H-pyrazol-4-yl)quinazolin-4-one]
16 | COc1cccc(Cn2cnc3ccc(-c4cn[nH]c4)c(Cl)c3c2=O)c1 [Compound 7, 5-Chloro-3-[(3-methoxyphenyl)methyl]-6-(1H-pyrazol-4-yl)quinazolin-4-one]
29 | CCOc1cccc(Cn2cnc3ccc(-c4cn[nH]c4)c(F)c3c2=O)c1 [Compound 8, 3-(3-Ethoxybenzyl)-5-fluoro-6-(1H-pyrazol-4-yl)quinazolin-4(3H)-one]
93 | COc1cccc(Cn2cnc3c(F)cc(-c4cn[nH]c4)cc3c2=O)c1 [Compound 9, 8-Fluoro-3-[(3-methoxyphenyl)methyl]-6-(1H-pyrazol-4-yl)quinazolin-4-one]
371 | COc1cccc(Cn2c(C)nc3ccc(-c4ccnc(N)n4)cc3c2=O)c1 [Compound 10, 6-(2-Aminopyrimidin-4-yl)-3-[(3-methoxyphenyl)methyl]-2-methyl-quinazolin-4-one]
1410 | COC(=O)C(c1cccc(OC)c1)n1cnc2ccc(-c3cn[nH]c3)cc2c1=O (stereo not drawn) [Compound 11, Methyl 2-(3-methoxyphenyl)-2-[4-oxo-6-(1H-pyrazol-4-yl)quinazolin-3-yl]acetate]
2550 | COc1cccc(C(C(=O)O)n2cnc3ccc(-c4cn[nH]c4)cc3c2=O)c1 (stereo not drawn) [Compound 12, (3-Methoxyphenyl)-2-[4-oxo-6-(1H-pyrazol-4-yl)quinazolin-3-yl]acetic acid]

Same assay, conditions: 10 nM GRK2; ATP 30 or 600 μM, not stated which; read-out: GRK2 Lancer IC50

IC50 [nM] | Compound
6 | COc1cccc(Cn2cnc3ccc(-c4cn[nH]c4)cc3c2=O)c1 [Compound 2, 3-(3-Methoxybenzyl)-6-(1H-pyrazol-4-yl)quinazolin-4(3H)-one]

What follows are compounds tested against T1, GRK2 (assay: biochemical). Conditions: GRK2 IC50 (μM), 10 nM GRK2; 10 uM ATP.

IC50 | Compound
~0.01 µM and 0.011 µM | COc1cccc(Cn2cnc3ccc(-c4cn[nH]c4)cc3c2=O)c1 [Compound 2, 3-(3-Methoxybenzyl)-6-(1H-pyrazol-4-yl)quinazolin-4(3H)-one]
22.2 µM | O=c1c2cc(-c3cn[nH]c3)ccc2ncn1Cc1cccc(OC(F)(F)F)c1 [Compound 66, 6-(1H-Pyrazol-4-yl)-3-[[3-(trifluoromethoxy)phenyl]methyl]quinazolin-4-one]
< 0.01 µM | O=C(NCc1c(F)cccc1F)c1cc(F)cc(Cn2cnc3ccc(-c4cn[nH]c4)cc3c2=O)c1 [Compound 72, N-(2,6-Difluorobenzyl)-3-fluoro-5-((4-oxo-6-(1H-pyrazol-4-yl)quinazolin-3(4H)-yl)methyl)benzamide]
> 20 µM | O=c1c2cc(-c3c[nH]nc3C(F)(F)F)ccc2ncn1Cc1c(F)cccc1F [Compound 77, 3-[(2,6-Difluorophenyl)methyl]-6-[3-(trifluoromethyl)-1H-pyrazol-4-yl]quinazolin-4-one]
0.801 µM | O=c1c2cc(-c3cn[nH]c3)ccc2ncn1Cc1c(F)cccc1F [Compound 78, 3-[(2,6-Difluorophenyl)methyl]-6-(1H-pyrazol-4-yl)quinazolin-4-one]
> 100 µM | O=c1c2cc(-c3ccc(F)nc3)ccc2ncn1Cc1ccccc1 [Compound 82, 3-Benzyl-6-(6-fluoro-3-pyridyl)quinazolin-4-one]
1.63 µM | O=C(NCc1ccc(F)cc1)c1cccc(-n2cnc3ccc(-c4cn[nH]c4)cc3c2=O)c1 [Compound C1, N-[(4-Fluorophenyl)methyl]-3-[4-oxo-6-(1H-pyrazol-4-yl)quinazolin-3-yl]benzamide]
4.34 µM | O=C(NCc1ccc(F)cc1F)c1ccc(Cn2cnc3ccc(-c4cn[nH]c4)cc3c2=O)cc1 [Compound C2, N-[(2,4-Difluorophenyl)methyl]-4-[[4-oxo-6-(1H-pyrazol-4-yl)quinazolin-3-yl]methyl]benzamide]
~20 µM | O=C(NCc1c(F)cccc1F)c1ccc(Cn2cnc3ccc(-c4cn[nH]c4)cc3c2=O)cc1 [Compound C3, N-[(2,6-Difluorophenyl)methyl]-4-[[4-oxo-6-(1H-pyrazol-4-yl)quinazolin-3-yl]methyl]benzamide]
0.093 µM | O=c1c2cc(-c3cn[nH]c3)ccc2ncn1Cc1cccc2c1OCO2 [Compound C4, 3-(1,3-Benzodioxol-4-ylmethyl)-6-(1H-pyrazol-4-yl)quinazolin-4-one]
0.212 µM | O=C(NCc1ccc(F)cc1)c1cc(Cn2cnc3ccc(-c4cn[nH]c4)cc3c2=O)ccn1 [Compound C5, N-[(4-Fluorophenyl)methyl]-4-[[4-oxo-6-(1H-pyrazol-4-yl)quinazolin-3-yl]methyl]pyridine-2-carboxamide]
> 50 µM | COCCNc1nccc(-c2ccc3ncn(Cc4cccc(OC)c4)c(=O)c3c2)n1 [Compound C6, 6-[2-(2-Methoxyethylamino)pyrimidin-4-yl]-3-[(3-methoxyphenyl)methyl]quinazolin-4-one]
